According to ChEMBL document CHEMBL3399934, “Cannabidiol (CBD) and its analogs: a review of their effects on inflammation” (Bioorg Med Chem, 2015):

Experiments:
Neutrophil = experiment: Inhibition of human neutrophil migration incubated for 30 mins prior to fMLP challenge by boyden chamber assay; assay type: functional, cell-based
[1] = Antiinflammatory activity in human glial cells assessed as reduction of LPS-induced S100B expression at 1 uM; assay type: functional; parameters: scale not given: the % may be the effect or the level left
Fibroblast [2] = experiment: Reduction of lecithin content in Niemann-Pick patient fibroblast at 30 uM; assay type: functional, Homo sapiens; parameters: scale not given: the % may be the effect or the level left
Mus musculus [3] = experiment: Reduction of iNOS protein expression in C57BL/6J mouse hippocampus inoculated with human amyloid beta (1 to 42) at 10 ug/kg, ip after 10 days by immunofluorescence analysis; assay type: functional; parameters: scale not given: the % may be the effect or the level left
[4] = Reduction of sphingomyelin content in human fibroblast at 30 uM; assay type: ADME, cell-based; parameters: scale not given: the % may be the effect or the level left
[5] = Reduction of lecithin content in human fibroblast at 30 uM; assay type: ADME, cell-based; parameters: scale not given: the % may be the effect or the level left
Fibroblast [6] = experiment: Reduction of sphingomyelin content in Niemann-Pick patient fibroblast at 30 uM; assay type: functional, Homo sapiens; parameters: scale not given: the % may be the effect or the level left
HEK293 = experiment: Induction of rat TRPV3 expressed in HEK293 cells assessed as increase of Ca2+ level relative to ionomycin; assay type: cell-based
Mus musculus [7] = experiment: Antiinflammatory activity in Swiss OF1 mouse assessed as reduction of LPS-induced TNF-alpha expression at 10 mg/kg, ip by immunoblotting analysis; assay type: functional; parameters: scale not given: the % may be the effect or the level left; details: route intraperitoneal
Mus musculus [8] = experiment: Reduction of IL-1beta protein expression in C57BL/6J mouse hippocampus inoculated with human amyloid beta (1 to 42) at 10 ug/kg, ip after 10 days by immunofluorescence analysis; assay type: functional; parameters: scale not given: the % may be the effect or the level left
Mus musculus [9] = experiment: Reduction of NO release in C57BL/6J mouse hippocampus inoculated with human amyloid beta (1 to 42) at 10 ug/kg, ip after 7 days; assay type: functional; parameters: scale not given: the % may be the effect or the level left
[10] = Induction of rat TRPV3 expressed in HEK293 cells assessed as increase of Ca2+ level; assay type: cell-based
Mus musculus [11] = experiment: Reduction of IL-1beta release in C57BL/6J mouse hippocampus inoculated with human amyloid beta (1 to 42) at 10 ug/kg, ip after 10 days by ELISA; assay type: functional; parameters: scale not given: the % may be the effect or the level left
[12] = Antiinflammatory activity in human glial cells assessed as reduction of LPS-induced iNOS expression at 1 uM; assay type: functional; parameters: scale not given: the % may be the effect or the level left
[13] = Antiinflammatory activity in human glial cells assessed as reduction of LPS-induced nitrate expression at 1 uM; assay type: functional; parameters: scale not given: the % may be the effect or the level left
Cannabinoid receptor 1 [14] = molecular target: Cannabinoid receptor 1 (Mus musculus, UniProt P47746); experiment: Partial agonist activity at mouse CB1 receptor by vas deferens assay
Chain of Cannabinoid receptor 1 (Mus musculus, UniProt P47746) (P47746 whole entry): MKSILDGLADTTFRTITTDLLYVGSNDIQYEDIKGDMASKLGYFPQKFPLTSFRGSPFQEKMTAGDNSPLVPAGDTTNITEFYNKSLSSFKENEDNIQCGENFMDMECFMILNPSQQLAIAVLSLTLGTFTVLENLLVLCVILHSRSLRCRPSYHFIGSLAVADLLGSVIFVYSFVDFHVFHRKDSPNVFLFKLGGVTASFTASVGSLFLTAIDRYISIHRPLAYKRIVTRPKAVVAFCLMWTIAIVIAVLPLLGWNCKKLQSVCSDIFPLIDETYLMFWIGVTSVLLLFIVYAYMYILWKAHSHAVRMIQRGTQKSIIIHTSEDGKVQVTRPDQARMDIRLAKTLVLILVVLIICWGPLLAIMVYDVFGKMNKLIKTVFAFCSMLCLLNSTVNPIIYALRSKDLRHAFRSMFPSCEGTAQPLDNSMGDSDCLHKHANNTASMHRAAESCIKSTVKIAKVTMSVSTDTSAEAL

Cannabinoid receptor 1 [15] = molecular target: Cannabinoid receptor 1 (Rattus norvegicus, UniProt P20272); experiment: Binding affinity to rat CB1 receptor
Chain of Cannabinoid receptor 1 (Rattus norvegicus, UniProt P20272) (P20272 whole entry): as the sequence (P47746 whole entry) above, with D95E counted along it

C=C(C)[C@@H]1CCC(C)=C[C@H]1c1c(O)cc(CCCCC)cc1O [CANNABIDIOL]
IC50 (Neutrophil): 0.00045 µM | Activity [1]: >50% | Activity (Fibroblast [2]): 21% | Activity (Mus musculus [3]): 50% | Activity [4]: 17% | Activity [5]: 21% | Activity (Fibroblast [6]): 77% | Activity (HEK293): 50% | Activity (Mus musculus [7]): 50% | Activity (Mus musculus [8]): 50% | Activity (Mus musculus [9]): 50% | EC50 [10]: 3.7 µM | Activity (Mus musculus [11]): 50% | Activity [12]: >50% | Activity [13]: >50%

C=C(C)[C@@H]1CCC(C)=C[C@H]1c1c(C)cc(O)cc1O
IC50 (Neutrophil): 0.033 µM

C=C(C)[C@@H]1CCC(C)=C[C@H]1c1ccc(CCCCC)cc1O
IC50 (Cannabinoid receptor 1 [14]): 0.0309 µM

CCCCCCC(C)(C)c1cc(OC)c([C@H]2C=C(CO)[C@H]3C[C@@H]2C3(C)C)c(OC)c1
Ki (Cannabinoid receptor 1 [15]): > 10 µM
